ChEMBL document CHEMBL5321295, “Targeted Degradation of Alpha-Synuclein by Autophagosome-Anchoring Chimera Peptides” (J Med Chem, 2023)
The source made the active and inactive calls. The calls are words filed in the database; no cut-off is given here.

Key:
HEK-293T [1] = experiment: Downregulation of DYNC1I2 expression in HEK293T cells at 100 uM incubated for 24 hrs by proteomic profiling analysis; type: functional, cell-based; conditions: Homo sapiens
Mus musculus [2] = experiment: Neuroprotective activity in MPTP-induced anxiety-like status in C57BL/6 mouse assessed as increase in distance travelled in zone centers of mouse track at 50 mg/kg/day, iv treated for 5 days measured after 4 days by open field test; type: functional, organism-based; conditions: time 9.0 day
[3] = Chemical stability of compound in cell culture medium at 50 uM measured for 24 hrs by HPLC analysis; type: physicochemical
Mus musculus [4] = experiment: Downregulation of alpha-synuclein level in substantia nigra pars compacta of MPTP-treated C57BL/6 mouse at 50 mg/kg/day, iv treated for 5 days by IHC analysis; type: functional, organism-based; conditions: time 5.0 day
[5] = Toxicity in C57BL/6 mouse assessed as change in uric acid level at 50 to 200 mg/kg/day treated for 5 days; type: organism-based; conditions: in vivo, 120 h, dose 50-200 mg/kg/day, time 5 day
Mus musculus [6] = experiment: Neuroprotective activity in MPTP-treated C57BL/6 mouse assessed as increase in dopaminergic neurons of substantia nigra pars compacta at 50 mg/kg/day, iv treated for 5 days by immunofluorescent staining of tyrosine hydroxylase based microscopy; type: functional, organism-based; conditions: time 5.0 day
[7] = target: T1, Microtubule-associated protein 1 light chain 3 beta (Homo sapiens, UniProt Q9GZQ8); experiment: Induction of LC3B-mediated autophagy flux in HEK293T cells overexpressing alpha-synuclein (unknown origin) assessed as increase in LAMP1 level upto 100 uM incubated for 4 hrs by immunoblot analysis; type: cell-based
HEK-293T [8] = experiment: Downregulation of BANF1 expression in HEK293T cells at 100 uM incubated for 24 hrs by proteomic profiling analysis; type: functional, cell-based; conditions: Homo sapiens
[9] = Toxicity in C57BL/6 mouse assessed as change in CKMB level at 50 to 200 mg/kg/day treated for 5 days; type: organism-based; conditions: in vivo, 120 h, dose 50-200 mg/kg/day, time 5 day
[10] = Drug localization in HEK293T cells overexpressing mCherry-fused alpha-synuclein (unknown origin) assessed as puncta formation of alpha-synuclein at 50 uM incubated for 2 hrs by MDC staining based confocal laser scanning microscopy; type: ADME, cell-based; conditions: human, hek-293t
[11] = Toxicity in C57BL/6 mouse assessed as tremor at 50 to 200 mg/kg/day treated for 5 days; type: organism-based; conditions: in vivo, 120 h, dose 50-200 mg/kg/day, time 5 day
Alpha-synuclein [12] = target: T2, Alpha-synuclein (Homo sapiens, UniProt P37840); experiment: Induction of alpha-synuclein (unknown origin) degradation overexpressed in HEK293T cells infected with adenovirus expressing mCherry-EGFP-LC3B at 50 uM incubated upto 24 hrs by immunoblot analysis; type: cell-based
[13] = Drug localization in HEK293T cells overexpressing mCherry-fused alpha-synuclein (unknown origin) assessed as colocalization of autophagosomes at 50 uM incubated for 2 hrs by LyTG staining based confocal laser scanning microscopy; type: ADME, cell-based; conditions: human, hek-293t
[14] = Toxicity in C57BL/6 mouse assessed as dyspnea at 50 to 200 mg/kg/day treated for 5 days; type: organism-based; conditions: in vivo, 120 h, dose 50-200 mg/kg/day, time 5 day
[15] = Toxicity in C57BL/6 mouse assessed as reduction in ALT level at 200 mg/kg/day treated for 5 days; type: organism-based; conditions: in vivo, 120 h, time 5 day
Alpha-synuclein [16] = target: T2, Alpha-synuclein; experiment: Induction of alpha-synuclein (unknown origin) degradation overexpressed in HEK293T cells infected with adenovirus expressing mCherry-EGFP-LC3B at 50 uM incubated for 3 hrs by immunoblot analysis; type: cell-based
HEK-293T [17] = experiment: Downregulation of PSMB7 expression in HEK293T cells at 100 uM incubated for 24 hrs by proteomic profiling analysis; type: functional, cell-based; conditions: Homo sapiens
HEK-293T [18] = experiment: Downregulation of THOP1 expression in HEK293T cells at 100 uM incubated for 24 hrs by proteomic profiling analysis; type: functional, cell-based; conditions: Homo sapiens
[19] = Toxicity in C57BL/6 mouse assessed as histological change in liver at 50 to 200 mg/kg/day treated for 5 days by H and E staining based analysis; type: organism-based; conditions: in vivo, 120 h, dose 50-200 mg/kg/day, time 5 day
HEK-293T [20] = experiment: Downregulation of MAT1A expression in HEK293T cells at 100 uM incubated for 24 hrs by proteomic profiling analysis; type: functional, cell-based; conditions: Homo sapiens
Alpha-synuclein [21] = target: T2, Alpha-synuclein; experiment: Binding affinity to alpha-synuclein (unknown origin) overexpressed in HEK293T cells at 50 to 100 uM incubated for 4 hrs by co-IP assay; type: cell-based; conditions: dose 50-100 µM
HEK-293T [22] = experiment: Downregulation of MARCKS expression in HEK293T cells at 100 uM incubated for 24 hrs by proteomic profiling analysis; type: functional, cell-based; conditions: Homo sapiens
[23] = target: T1, Microtubule-associated protein 1 light chain 3 beta; experiment: Binding affinity to LC3B in HEK293T cells overexpressing alpha-synuclein (unknown origin) assessed as shift in denaturation at 50 uM incubated for 4 hrs followed by heating at 40 to 75 degreeC for 3 mins by CETSA assay; type: cell-based; conditions: time 243.0 min
Mus musculus [24] = experiment: Downregulation of phosphorylated alpha-synuclein at S129 residue level in substantia nigra pars compacta of MPTP-treated C57BL/6 mouse at 50 mg/kg/day, iv treated for 5 days by immunoblot analysis; type: functional, organism-based; conditions: time 5.0 day
SH-SY5Y [25] = experiment: Cytoprotective activity in human SH-SY5Y cells transfected with alpha-synuclein (unknown origin) assessed as late apoptotic cells at 100 uM measured after 24 hrs by […] based flow cytometry (reference value: 56.6 %); type: functional
SH-SY5Y [26] = experiment: Cytotoxicity against wild-type human SH-SY5Y cells assessed as cell viability upto 200 uM incubated for 24 hrs by CCK8 assay; type: functional, cell-based
HEK-293T [27] = experiment: Downregulation of MYL12A expression in HEK293T cells at 100 uM incubated for 24 hrs by proteomic profiling analysis; type: functional, cell-based; conditions: Homo sapiens
[28] = target: T1, Microtubule-associated protein 1 light chain 3 beta; experiment: Binding affinity to LC3B in HEK293T cells overexpressing alpha-synuclein (unknown origin) at 50 to 100 uM incubated for 4 hrs by co-IP assay; type: cell-based; conditions: dose 50-100 µM
Alpha-synuclein [29] = target: T2, Alpha-synuclein; experiment: Induction of EGFP-fused alpha-synuclein (unknown origin) degradation overexpressed in HEK293T cells assessed as colocalization of alpha-synuclein with mCherry-fused LC3B at 50 uM incubated for 2 hrs by confocal laser scanning microscopy; type: cell-based
SH-SY5Y [30] = experiment: Cytoprotective activity in human SH-SY5Y cells transfected with alpha-synuclein (unknown origin) assessed as decrease in ROS level at 100 uM measured after 24 hrs by confocal laser scanning microscopy/flow cytometry (reference value: 175.4 +/- 8.4 %); type: functional; set-up: scale not given: the % may be the effect or the level left
Mus musculus [31] = experiment: Neuroprotective activity in MPTP-induced cognitive impairment in C57BL/6 mouse assessed as increase in platform crossover number in probe trial phase at 50 mg/kg/day, iv treated for 5 days measured after 5 to 8 days days by morris water maze test; type: functional, organism-based; conditions: time 10-13 day

CC(C)C[C@H](NC(=O)[C@H](Cc1c[nH]cn1)NC(=O)[C@@H](NC(=O)[C@H](Cc1c[nH]c2ccccc12)NC(=O)[C@H](CC(=O)O)NC(=O)[C@H](CC(=O)O)NC(=O)[C@H](CC(=O)O)NC(=O)CNC(=O)CNC(=O)[C@H](CO)NC(=O)[C@H](CO)NC(=O)CNC(=O)[C@H](CO)NC(=O)CNC(=O)[C@H](CCCNC(=N)N)NC(=O)[C@@H](NC(=O)[C@H](CCCCN)NC(=O)[C@H](CO)NC(=O)CNC(=O)[C@@H](NC(=O)[C@H](Cc1ccc(O)cc1)NC(=O)[C@H](CC(C)C)NC(=O)[C@@H](NC(=O)CN)C(C)C)C(C)C)[C@H](C)O)[C@@H](C)O)C(=O)N[C@@H](CO)C(=O)N[C@@H](CO)C(=O)N[C@@H](Cc1ccc(O)cc1)C(=O)NCC(=O)N[C@@H](CCCNC(=N)N)C(=O)N[C@@H](CCCCN)C(=O)N[C@@H](CCCCN)C(=O)N[C@@H](CCCNC(=N)N)C(=O)N[C@@H](CCCNC(=N)N)C(=O)N[C@@H](CCC(N)=O)C(=O)N[C@@H](CCCNC(=N)N)C(=O)N[C@@H](CCCNC(=N)N)C(=O)N[C@@H](CCCNC(=N)N)C(=O)O
Activity (HEK-293T [1]): Active | Activity (Mus musculus [2]): Active | Stability [3]: Stable | Activity (Mus musculus [4]): Active | Activity [5]: Non-Toxic | Activity (Mus musculus [6]): Active | Activity [7]: Active | Activity (HEK-293T [8]): Active | Activity [9]: Non-Toxic | Drug uptake [10]: Active | Activity [11]: Non-Toxic | Activity (Alpha-synuclein [12]): Active | Drug uptake [13]: Active | Activity [14]: Non-Toxic | Activity [15]: Toxic | Activity (Alpha-synuclein [16]): Active | Activity (HEK-293T [17]): Active | Activity (HEK-293T [18]): Active | Activity [19]: Non-Toxic | Activity (HEK-293T [20]): Active | Activity (Alpha-synuclein [21]): Active | Activity (HEK-293T [22]): Active | Activity [23]: Active | Activity (Mus musculus [24]): Active | Activity (SH-SY5Y [25]): 79.7% | Activity (SH-SY5Y [26]): inactive | Activity (HEK-293T [27]): Active | Activity [28]: Active | Activity (Alpha-synuclein [29]): Active | Activity (SH-SY5Y [30]): 127.7% | Activity (Mus musculus [31]): Active
